Results as given in US20050282743A1, “Molecular interactions in cells” (Arbor Vita Corporation, priority 2001, published 2005).
One block for each sequence: values may come before it. Ends that are not written are not given here. * marks the point of attachment. Biotin = O=C1N[C@H]2[C@H](CS[C@H]2CCCCC(=O)*)N1

What was measured:
[1] = tested on: PDZ-domain polypeptide (GST/PDZ fusion protein); test: G assay (G0): biotinylated PL peptide 20 uM binding to immobilized GST/PDZ fusion protein; settings: G Assay of Example 3
Protocol: “G Assay”—Detection of PDZ-Ligand Binding Using Immobilized PDZ-Domain Fusion Polypeptide
In other assays, a GST/PDZ fusion protein is immobilized on a surface (“G” assay). The binding of labeled PL peptide (e.g., as listed in TABLE 8) to this surface is then measured. Typically, the assay is carried out as follows:
(1) A PDZ-domain polypeptide is bound to a surface, e.g. a protein binding surface. In a preferred embodiment, a GST/PDZ fusion protein containing one or more PDZ domains is bound to a polystyrene 96-well plate. […] In some instances, the GST/PDZ fusion protein is bound via an anti-GST antibody that is coated onto the 96-well plate. Adequate binding to the plate can be achieved when: • a. […]
(3) The binding of the biotinylated peptide to the GST/PDZ fusion protein surface can be detected using a variety of methods and detectors known to one of skill in the art. […] The reaction of the HRP and its substrate is terminated by addition of 100 uL per well of 1M sulfuric acid, and the absorbance of each well of the plate is read at 450 nm.
(4) Specific binding of a PL peptide and a PDZ domain polypeptide is determined by comparing the signal from the well(s) in which the PL peptide and PDZ domain polypeptide are combined, with the background signal(s). […]

[2] = biological target: T1, PDZ protein (GST-PDZ fusion) (Homo sapiens, UniProt O14907); test: G' assay (10 uM PL peptide), results of TABLE 7 and TABLE 12; format: binding; settings: PDZ TIP1, PDZ Domain 1
T1 construct: made in house; host or cells: E. coli (DH5alpha, BL21 or JM109)
T1 sequence (O14907 1-124): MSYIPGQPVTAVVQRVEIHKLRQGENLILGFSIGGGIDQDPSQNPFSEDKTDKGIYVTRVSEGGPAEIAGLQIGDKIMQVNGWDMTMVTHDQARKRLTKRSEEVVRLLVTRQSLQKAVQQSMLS
Outline: (§1)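 Biotin-PL peptide (N-term label), 10 uM vs GST-PDZ; protein 5 ug/ml by default. A450 nm binned: 1 = 0-1, 2 = 1-2, 3 = 2-3, 4 = 3-4, 5 = >4 on >2 repeats, 0 = no binding.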

[3] = tested on: PDZ protein (GST-PDZ fusion); test: as above; format: binding
Outline: as §1

[4] = tested on: Mouse T cell lines stimulated with anti-mouse CD3; test: T cell stimulation assay, anti-mouse CD3, IFNγ ELISA (FIG. 1B); format: cell-based; settings: 10 μM Tat-peptide; compared to Tat-peptide alone
Protocol: Cell Cultures Cells were maintained and tested in RPMI 1640 media supplemented with 10% fetal calf serum (HyClone), 2 mM glutamine, 10 mM Hepes, 100 U/ml penicillin, 100 μg/ml streptomycin, 0.1 mM non-essential amino acids, 1 mM sodium pyruvate, and 50 μM beta mercaptoethanol.
Supernatants were assayed for cytokine production following activation of T cell lines. Mouse T cell lines were stimulated using two different methods, either with antigen and antigen presenting cells or anti-mouse CD3.
Antibody against mouse CD3 (Pharmigen #145-2C11) was coated overnight at 4° C. using 96-well flat bottom Elisa plates at a final concentration of 0.5 μg/ml, diluted in PBS. Just prior to use, plates were washed three times with 200 μl/well PBS to remove excess anti-CD3. […]
IFNγ was measured from cell supernatants, described above, at ambient temperature using the Endogen, Inc. ELISA protocol 3. […] The presence of IFNγ was detected with a biotin-labeled anti-mouse IFNγ monoclonal antibody (MM700B, Endogen, Inc.,). […] The absorbance at 450 nm was measured using a microtiter plate reader (Thermo Max, Molecular Devices) and the concentration of unknown IFNγ from cell supernatants was calculated from a standard curve generated by Softmax Pro software (Molecular Devices).

[5] = biological target: T2, KIAA0807(S) (PDZ Domain 1) (Homo sapiens, UniProt Q6P0Q8); test: G' assay and Kd titration, TABLE 12; format: binding; settings: A450 nm class of biotinylated PL peptide bound; 0 in conc columns = peptide 10 uM, protein 5 ug/ml
T2 construct: made in house; host or cells: E. coli (DH5alpha, BL21 or JM109)
T2 sequence (Q6P0Q8 with tags, fused parts or gaps): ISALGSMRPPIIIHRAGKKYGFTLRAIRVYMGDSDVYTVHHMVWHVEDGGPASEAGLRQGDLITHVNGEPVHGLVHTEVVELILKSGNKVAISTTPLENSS
Protocol: (§2) The third column labeled “Peptide Optimal Concentration” in the tables is a number reflective of the binding interaction between the PL protein and PDZ protein. […] The column labeled “Protein Optimal Concentration” refers to the protein concentration used to assay PL interaction (in ug/ml); a ‘0’ is indicative of 5 ug/ml protein concentration; any other value represents the concentration (in ug/ml) used to determine the dissociation constant for a given interaction.
(§3) Finally, the seventh column labeled “Classification” is another measure of the level of binding. In particular, it provides an absorbance value at 450 nm which indicates the amount of PL peptide bound to the PDZ protein. The following numerical values have the following meanings: ‘1’—A450 nm 0-1; ‘2’—A450 nm 1-2; ‘3’—A450 nm 2-3; ‘4’—A450 nm 3-4; ‘5’—A450 nm of 4 more than 2× repeated; ‘0’—A450 nm 0, i.e., not found to interact. Thus, higher numbers indicate stronger interactions.
For convenience, the assay conditions described in this section are referred to as the “G′ assay” and the “G″ assay,” with the specific conditions described in the preceding section on G assays being referred to as the “G^0 assay.” The “G′ assay” is identical to the “G^0 assay” except at step (2) the peptide concentration is 10 uM instead of 20 uM.

Mint 1 (PDZ Domain 1, 2) = biological target: T3, Mint 1 (PDZ Domain 1, 2) (Homo sapiens, UniProt Q02410); test: G' assay, TABLE 12; format: binding; settings: A450 nm class of biotinylated PL peptide bound; 0 in conc columns = peptide 10 uM, protein 5 ug/ml
T3 construct: When more than one PDZ domain was cloned, the DNA portion cloned represents the PDZ domains and the cDNA portion located between individual domains; made in house; host or cells: E. coli (DH5alpha, BL21 or JM109)
T3 sequence (Q02410 652-828 limits assumed): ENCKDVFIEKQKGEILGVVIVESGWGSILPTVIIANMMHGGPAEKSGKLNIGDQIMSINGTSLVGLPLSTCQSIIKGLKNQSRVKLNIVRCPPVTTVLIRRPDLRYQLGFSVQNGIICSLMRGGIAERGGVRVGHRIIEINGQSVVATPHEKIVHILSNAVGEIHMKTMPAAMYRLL
Protocol: as §2, §3
(§4) For convenience, the assay conditions described in this section are referred to as the “G′ assay” and the “G″ assay,” with the specific conditions described in the preceding section on G assays being referred to as the “G^0 assay.” The “G′ assay” is identical to the “G^0 assay” except at step (2) the peptide concentration is 10 uM instead of 20 uM. […] Correspondingly, it slightly increases the certainty that detected interactions are of sufficient affinity and half-life to be of biological importance and useful therapeutic targets.

KIAA807 = biological target: T4, KIAA807 (Homo sapiens, UniProt Q6P0Q8); test: G' assay, TABLE 12; format: binding; settings: A450 nm class of biotinylated PL peptide bound; 0 in conc columns = peptide 10 uM, protein 5 ug/ml
T4 construct: made in house; host or cells: E. coli (DH5alpha, BL21 or JM109)
T4 sequence (Q6P0Q8 1104-1192 limits assumed): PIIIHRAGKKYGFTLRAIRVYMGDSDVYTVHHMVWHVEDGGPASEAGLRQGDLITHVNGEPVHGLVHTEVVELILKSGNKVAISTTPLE
Protocol: as §2, §3, §4

[6] = biological target: T5, PDZ protein (GST-PDZ fusion) (Homo sapiens, UniProt Q02410); test: G' assay (10 uM PL peptide), results of TABLE 7 and TABLE 12; format: binding; settings: PDZ Mint 1, PDZ Domain 2
T5 construct: made in house; host or cells: E. coli (DH5alpha, BL21 or JM109)
T5 sequence (Q02410 1-837): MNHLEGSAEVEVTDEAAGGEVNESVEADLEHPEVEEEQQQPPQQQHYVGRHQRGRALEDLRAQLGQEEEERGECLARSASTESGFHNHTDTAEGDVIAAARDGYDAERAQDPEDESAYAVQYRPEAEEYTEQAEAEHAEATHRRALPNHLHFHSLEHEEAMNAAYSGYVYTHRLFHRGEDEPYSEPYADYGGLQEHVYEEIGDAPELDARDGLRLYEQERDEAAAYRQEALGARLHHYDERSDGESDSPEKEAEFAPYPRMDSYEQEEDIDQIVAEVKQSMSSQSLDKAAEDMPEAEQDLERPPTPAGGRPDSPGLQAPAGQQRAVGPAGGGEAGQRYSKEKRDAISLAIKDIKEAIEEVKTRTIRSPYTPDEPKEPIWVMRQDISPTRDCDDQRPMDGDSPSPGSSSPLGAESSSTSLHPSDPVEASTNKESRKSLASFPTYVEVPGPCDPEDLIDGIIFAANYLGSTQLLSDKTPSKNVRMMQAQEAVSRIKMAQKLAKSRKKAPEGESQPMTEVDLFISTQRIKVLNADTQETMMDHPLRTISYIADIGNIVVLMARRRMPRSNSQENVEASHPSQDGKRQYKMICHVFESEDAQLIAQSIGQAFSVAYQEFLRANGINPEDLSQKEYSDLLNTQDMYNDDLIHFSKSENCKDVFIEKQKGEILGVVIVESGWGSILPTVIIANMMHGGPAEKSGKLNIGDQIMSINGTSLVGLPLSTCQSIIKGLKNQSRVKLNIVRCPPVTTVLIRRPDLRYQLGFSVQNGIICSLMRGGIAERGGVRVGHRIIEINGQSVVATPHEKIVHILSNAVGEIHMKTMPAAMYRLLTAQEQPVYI
Outline: as §1

[7] = biological target: T6, PDZ protein (GST-PDZ fusion) (Homo sapiens, UniProt Q9Y2H9); test: as above; format: binding; settings: PDZ KIAA0973, PDZ Domain 1
T6 construct: made in house; host or cells: E. coli (DH5alpha, BL21 or JM109)
Outline: as §1

T6 sequence (Q9Y2H9 whole entry, the tested form may be a part): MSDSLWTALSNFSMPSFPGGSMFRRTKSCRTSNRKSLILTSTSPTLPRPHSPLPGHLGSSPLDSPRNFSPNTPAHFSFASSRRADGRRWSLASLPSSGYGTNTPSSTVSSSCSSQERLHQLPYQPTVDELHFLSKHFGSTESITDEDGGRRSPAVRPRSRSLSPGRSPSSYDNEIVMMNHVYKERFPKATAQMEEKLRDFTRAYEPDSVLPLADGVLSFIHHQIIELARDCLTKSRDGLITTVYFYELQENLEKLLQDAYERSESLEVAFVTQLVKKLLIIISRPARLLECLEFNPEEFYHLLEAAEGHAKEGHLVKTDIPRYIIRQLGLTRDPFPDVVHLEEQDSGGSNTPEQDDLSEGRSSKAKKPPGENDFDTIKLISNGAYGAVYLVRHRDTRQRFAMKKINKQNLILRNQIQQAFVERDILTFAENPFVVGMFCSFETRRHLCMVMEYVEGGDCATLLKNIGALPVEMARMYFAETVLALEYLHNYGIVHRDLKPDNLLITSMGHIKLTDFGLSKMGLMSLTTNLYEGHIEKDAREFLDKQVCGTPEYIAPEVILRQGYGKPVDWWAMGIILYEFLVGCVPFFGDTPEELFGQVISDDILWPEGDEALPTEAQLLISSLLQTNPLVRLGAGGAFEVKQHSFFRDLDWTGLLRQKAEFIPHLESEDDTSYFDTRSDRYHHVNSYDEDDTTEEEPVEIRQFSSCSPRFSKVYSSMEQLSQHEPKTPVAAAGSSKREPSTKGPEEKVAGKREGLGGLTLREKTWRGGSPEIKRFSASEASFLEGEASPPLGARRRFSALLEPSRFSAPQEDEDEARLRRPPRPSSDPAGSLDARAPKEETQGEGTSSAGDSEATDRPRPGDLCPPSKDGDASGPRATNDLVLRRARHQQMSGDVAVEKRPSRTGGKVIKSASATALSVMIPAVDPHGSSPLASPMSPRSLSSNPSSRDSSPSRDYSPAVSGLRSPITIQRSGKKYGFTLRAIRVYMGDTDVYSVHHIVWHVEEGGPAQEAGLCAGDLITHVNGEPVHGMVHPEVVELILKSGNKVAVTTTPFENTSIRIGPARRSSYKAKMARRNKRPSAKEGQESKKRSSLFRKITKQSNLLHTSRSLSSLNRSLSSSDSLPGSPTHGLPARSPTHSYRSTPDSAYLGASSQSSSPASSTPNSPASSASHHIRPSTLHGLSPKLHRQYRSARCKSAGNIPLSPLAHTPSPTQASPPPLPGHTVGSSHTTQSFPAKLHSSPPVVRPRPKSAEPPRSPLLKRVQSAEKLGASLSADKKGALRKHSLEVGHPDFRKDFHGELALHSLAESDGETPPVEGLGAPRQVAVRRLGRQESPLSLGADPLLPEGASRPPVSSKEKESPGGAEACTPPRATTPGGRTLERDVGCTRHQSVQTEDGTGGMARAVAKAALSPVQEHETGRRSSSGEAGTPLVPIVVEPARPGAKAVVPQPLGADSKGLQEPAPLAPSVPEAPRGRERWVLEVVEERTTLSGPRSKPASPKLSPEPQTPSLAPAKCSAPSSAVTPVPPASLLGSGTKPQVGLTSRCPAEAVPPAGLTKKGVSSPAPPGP

Sequence: GGGRGSGLAGGSRGGGQSRQ [HPV E6 77]
binding of E6 C-terminal peptides to a variety of PDZ domains [1]: did not bind any of the PDZ domains tested
Classification [2]: 0 (A450 nm 0, i.e., not found to interact)
Classification ([3]; PDZ BAI-1, PDZ Domain 2): 0 (A450 nm 0, i.e., not found to interact)

Sequence: GYGRKKRRQRRRGMTSSSSVV
T cell activation mediated by monoclonal anti-CD3 (IFNγ production) [4]: inhibited T cell activation

Sequence: GYGRKKRRQRRRGSISSSAEV [Tat-CLASP1 fusion peptide]
T cell activation mediated by monoclonal anti-CD3 (IFNγ production) [4]: did not inhibit T cell activation

Sequence: HAMNAAPRAMENAPALRTSH (Biotin-HAMNAAPRAMENAPALRTSH) [HPV E6 57]
binding of E6 C-terminal peptides to a variety of PDZ domains [1]: did not bind any of the PDZ domains tested

Classification [5]: 5 (A450 nm of 4 more than 2× repeated)
Classification (Mint 1 (PDZ Domain 1, 2)): 1 (A450 nm 0-1)
Classification (KIAA807): 4 (A450 nm 3-4)
Classification [6]: 1 (A450 nm 0-1)
Classification [7]: 2 (A450 nm 1-2)
Sequence: KKGTYLTDETHREVKFTSL (Biotin-KKGTYLTDETHREVKFTSL) [CD46]
Classification ([3]; PDZ BAI-1, PDZ Domain 5): 1 (A450 nm 0-1)
PDZ proteins bound by the PL (TABLE 7) ([3]; as cited in the text from TABLE 7): KIAA0973, Mint 1, KIAA807, BAI-1, KIA0807(S)
